This data set is described as follows: Drug-excipient compatibility study, 40° C./75% RH-4 W (% degradants). It counts as physicochemical.

Where a name gives a salt, the structure may show the parent alone.

`CC(C)(C(=O)O)c1ccc(C(O)CCCN2CCC(C(O)(c3ccccc3)c3ccccc3)CC2)cc1` (stereo not shown) [API, Fexofenadine HCl]: for the setting “40° C./75% RH-4 W”, the “% Total” value stood at 0.11% and the Description result is given as “Clear”. Moreover, where the note is “Initial”, the “% Total” value is given as 0.09% and the Description result is on record as “Clear”.
